Row | SMILES | melting point [°C]
1 | O=S(=O)(c1c(-c2ccc(Cl)cc2)[nH]c(Br)c1Br)C(F)(F)C(F)F | 138 to 141
2 | Cc1cc(C)c2c(c1C)OC(C)(C)C2c1ccccc1 (centres undefined) | 86 to 87
3 | CSc1nnc(C2C(=O)N(C(N)=O)c3ccc(Cl)cc32)o1 (centres undefined) | 297 to 299
4 | CCOCn1c(Cc2ccccc2)c(C(C)C)c(=O)[nH]c1=O | 111
5 | COC(=O)C1CCC2C(CCC3C(C)(C)CCCC23C)C(=O)C1 (centres undefined) | 67 to 68
6 | CCOC(=O)c1c(C)nc(NN=C(C)C)c2nnn(CC)c12 | 68 to 72
7 | Cn1cc(SC(F)(F)F)c(=O)c(-c2cccc(C(F)(F)F)c2)c1 | 122 to 124
8 | COC(=O)c1ccc([N+](=O)[O-])cc1NC(=O)c1ccc(C(C)(C)C)cc1 | 146 to 148
9 | O=P(Oc1ccccc1)(Oc1ccccc1)C1(N2CCOCC2)CCCCC1 | 103 to 106
10 | O=c1nc(-c2ccc[nH]2)sc2ccccc12 | 202 to 203
11 | CC(=O)SCC(Cc1ccccc1)C(=O)Nc1ccc(C(=O)O)c(O)c1 (centres undefined) | 141 to 142
12 | CNC1NC(=O)c2sccc2-n2cccc21 (centres undefined) | 146
13 | Cc1c(C)c2c(c(C)c1NC(=O)OC(C)(C)C)C(=O)C(C)(C)O2 | 105 to 106
14 | O=C1Cc2cc([N+](=O)[O-])ccc2Sc2cc(Br)ccc21 | 242 to 245
15 | CCCCC(=O)Nc1ccc(-c2cc3[nH]c(=O)[nH]c3nc2C)cc1 | > 300
16 | OCc1cc2c3n(ccc-2n1)CC(Br)=N3 | 113 to 115
17 | COC(=O)c1cc(C(=O)OC)cc(-c2cc(C(F)(F)F)cc(C(F)(F)F)c2)c1 | 151
18 | O=C(O)c1ccc2oc3ccccc3c2c1 | 172 to 173
19 | COCCOCOCc1c(OC)ccc2c1Oc1c(ccc(OC)c1CO)N2C | 68 to 70

Row | SMILES | melting point [°C]
20 | C[Si](C)(C)CCCOc1cc(Cl)c([N+](=O)[O-])cc1Cl | 45 to 48
21 | O=Cc1cccnc1SCc1ccccc1 | 71.5 to 73
22 | O=C(c1ccc2nonc2c1)N1C2CCC1COC2 | 139 to 140
23 | COC(=O)c1nc(-c2ccc(Cl)c(OC)c2F)nc(N)c1C(C)F (centres undefined) | 150 to 152
24 | Cc1cc(C)cc(C(=O)c2ccc(O)c(CC(=O)O)c2)c1 | 242
25 | Cc1nnnn1-c1ccc(/C(=C\C2CCCC2)C(=O)O)cc1Cl | 216 to 219
26 | CCN(CC)CCNc1nc(N2CCCC2)nc2ccccc12 | 87 to 90
27 | CC(=O)Nc1ccc(/C=C/C(=O)NCC(=O)N(C)c2ccc(Cl)c(CO)c2Cl)cn1 | 207 to 209
28 | Cc1nc2cccc(N)c2s1 | 100 to 101
29 | Cc1ccc(S(=O)(=O)NC(=O)C2C(=O)CC(c3ccccc3)CC2=O)cc1 (centres undefined) | 164 to 166
30 | CCCNC(=O)Nc1ccccc1Nc1ccc(C(=O)c2ccccc2)cc1 | 167 to 169
31 | N#Cc1c2[nH]c(C(=O)O)cc(=O)c2cc2c(=O)cc(C(=O)O)[nH]c12 | > 320
32 | CC1(C#CC2(C(F)(F)F)C=NC(=O)Nc3ccc(Cl)cc32)CC1 (centres undefined) | 196 to 198
33 | Clc1ccc2c(c1)C(c1ccccc1)=NCc1nnc(Cc3ccccc3)n1-2 | 190 to 192
34 | Cc1nnc(CNc2c(C)cccc2C)s1 | 68 to 69
35 | N#CC(C#N)=C1Sc2nc3cc([N+](=O)[O-])c([N+](=O)[O-])cc3nc2S1 | > 300
36 | CCC(C(C)=CC(CNC(=O)c1nc[nH]n1)=NO)[N+](=O)[O-] (centres undefined) | 131 to 136
37 | C=CCNC(=O)N1CC(Oc2cccc(C)c2)C1 | 95 to 96
38 | CCC(C)Nc1nc2ccccc2c(=O)o1 (centres undefined) | 122 to 123

Row | SMILES | melting point [°C]
39 | O=c1[nH]c2cc(-n3cnc4c3CCCC4)c([N+](=O)[O-])cc2[nH]c1=O | > 300
40 | CC1Cc2ccc(O)cc2C1(C)C (centres undefined) | 66 to 67
41 | O=C(c1ccccn1)c1cnn2c(-c3cccc(NC(=O)C4CC4)c3)ccnc12 | 214 to 215
42 | CC(C)(C)OC(=O)N1CCN(C(=O)N2CCC(c3[nH]nc4c3C(=O)c3c(NC(=O)NN5CCOCC5)cccc3-4)CC2)CC1 | 231 to 232
43 | CCOC(=O)c1c(Nc2cc(F)ccc2[N+](=O)[O-])sc2cc(C)ccc12 | 147 to 149
44 | CNC(=O)CC1CN=C(c2cc3cc(Oc4ccc(S(C)(=O)=O)nc4)cc(OC)c3[nH]2)S1 (centres undefined) | 201 to 202
45 | CCCCCCC(=N)NC(=S)Nc1ccc(Cl)c(Cl)c1 | 89 to 90
46 | COC(=O)C1(NC(=O)C2(Br)SC=C(Br)C2Br)CCCCCC1 (centres undefined) | 165 to 168
47 | CC(C)(C)OC(=O)C(NN)C(=O)O (centres undefined) | 144 to 146
48 | CC(=O)OCC(=O)C12OCOC1CC1C3CCC4=CC(=O)C=CC4(C)C3(F)C(O)CC12C (centres undefined) | 283 to 285
49 | COc1ccc(N)cc1C(=O)O | 163 to 166
50 | COc1ccc(/C=C/S(=O)(=O)N(C)c2ccccc2)cc1 | 126 to 129
51 | C[C@H]1C[C@@](O)(c2cnc(Sc3ccc4c(c3)CC(=O)N4C)s2)CCO1 | 140
52 | ClCc1c(Br)c(Br)c(CCl)c(Br)c1Br | 232 to 233
53 | O=C(NC=CCc1cn(C2CC(O)C(CO)O2)c(=O)[nH]c1=O)C(F)(F)F (centres undefined) | 183 to 184
54 | CCOC(=O)CS(=O)(=O)Nc1c(C(C)C)cccc1C(C)C | 114 to 116
55 | CCCCCC(=O)NCc1ccc(C(=O)O)cc1 | 178 to 179
56 | CS(=O)c1coc2cc(NS(C)(=O)=O)c(Oc3ccccc3)cc2c1=O (centres undefined) | > 250
57 | NC(=O)C(F)(F)Cc1c[nH]c([N+](=O)[O-])n1 | 150 to 152

Further lines, results first:

Row | melting point [°C] | SMILES
58 | 129 to 137 | COc1ccc(/C=C(\C#N)c2ccc(Cl)cc2)cc1OC1CCCC1
59 | 143 to 145 | CCOCc1nc2c(N)nc3ccccc3c2n1NC1CCCCC1
60 | 141 to 142 | Nc1nccc(-c2cccc(OCC(O)CN3CCN(c4ccc(Cl)cc4)CC3)c2)n1 (centres undefined)
61 | 203 to 207 | Nc1ccc([N+](=O)[O-])c(NC(=O)c2ccccc2)c1
62 | 190 to 193 | Cc1cccc(N2CCOC2=O)c1COc1cccn2c(CO)c(C)nc12
63 | 180 to 182 | C=CCc1cc(N2CCN(c3ccncc3)CC2)ccc1O
64 | 151 to 152 | COCC(C)N1Cc2c(NC(=O)c3ccc(F)c(C(F)(F)F)c3)cccc2C1=O (centres undefined)
65 | 165 to 166 | CCOP(=O)(/C=C/c1cn(-c2ccccc2)nc1OCc1ccc(OCc2nc(-c3ccc(C)c(C(=O)O)c3)oc2CC)c(OC)c1)OCC
66 | 103 to 105 | CCOC(Cc1ccc(OCCN2COc3ccccc3C2=O)cc1)C(=O)O (centres undefined)
67 | 159 to 160 | Cc1nc(-c2ccc(Cl)cc2)sc1C(=O)N[C@H](C)[C@](O)(Cn1cncn1)c1ccc(F)cc1F
68 | 153 to 161 | CC(C)OCc1nc(C(C)(C)O)c(C(=O)O)n1Cc1ccc(-c2ccccc2-c2nnn[nH]2)cc1
69 | 119 to 121 | CC(=O)c1ccc(NS(C)(=O)=O)c(Oc2ccc(Cl)cc2Cl)c1
70 | 150 | O=C([C@@H](Cc1ccc(Cl)cc1)NC1CCC(O)(c2ccc(F)cc2)CC1)N1CCC(Cn2cncn2)(C2CCCCC2)CC1 (some centres undefined)
71 | 190 to 192 | COc1ccc(NC(=O)OC(C)(C)C)c(C(=O)NCCc2ccc(N=C(N)c3cccs3)cc2)c1
72 | 121 to 122 | O=[N+]([O-])c1ccccc1OCc1ccc2ccccc2n1
73 | 132 to 134 | c1ccc(C(Sc2nnn[nH]2)c2ccccc2)cc1
74 | 113 to 115 | CN(C)CCOC(=O)c1cc2cccc(OCc3ccccc3)c2[nH]1
75 | 99 to 100 | CCOC(=O)C(=O)/C=C/c1ccc(OCCc2nc(-c3ccccc3)oc2C)cc1
76 | > 300 | O=c1c(-c2cc(=O)c3c(O)cccc3o2)cn(-c2ccccc2)c2ccccc12
77 | 135 | Fc1cccc(F)c1C1=NC(c2cc3sc(-c4ccc(OC(F)(F)F)cc4)cc3s2)CC1 (centres undefined)
78 | 232 to 234 | CC1(C)CC(CCn2c(=O)[nH]c3ncc(-c4ccc(O)cc4)nc32)CCO1 (centres undefined)

Row | melting point [°C] | SMILES
79 | 155 to 157 | FC(F)(F)c1cccc(-c2ccnc3c(Cl)cnn23)c1
80 | 109 | O=C(c1cc(C(F)(F)F)cc(C(F)(F)F)c1)N1CCC(Nc2nc3cccnc3n2Cc2ccco2)CC1Cc1ccccc1 (centres undefined)
81 | 132 to 133 | Nc1ccc(Sc2ccccn2)cc1C(F)(F)F
82 | 193 | CC#CC(=O)N[C@H]1CC[C@H](CCN2CCN(c3nccc4c3CCO4)CC2)CC1
83 | 114 to 115 | O=C(O)[C@H](Cc1cccc(OCC(F)(F)C(F)F)c1)[C@@H](O)c1ccc(F)cc1 (racemic)
84 | 85 | CCOP(=O)(CCN1CCC(N(NCCN2CCCC2)S(=O)(=O)c2ccc(Nc3nccc(Nc4ccc(F)cc4)n3)cc2)CC1)OCC
85 | 253 to 257 | C=Cc1cccc(-n2cnc(-c3cnc4[nH]cc(C(=O)N[C@@H](C)C(C)(C)C)c4n3)c2)c1
86 | 55 to 58 | COc1ccc(Oc2cccc3c2C2(COc4cc5c(cc42)OCCO5)C(=O)N3C)cc1 (centres undefined)
87 | 130 to 131 | CC(C)(C)OC(=O)N1CCC(COc2ccc([N+](=O)[O-])cc2)CC1
88 | 198 to 201 | NS(=O)(=O)c1ccc(-n2nc(CCl)cc2-c2ccc(Cl)cc2)cc1
89 | 116 to 119 | CC(C)(C)NC(=O)[C@@H]1CCCN1C(=O)[C@@H](O)[C@@H](C(=O)[C@H](CC(N)=O)NCc1cnc2ccccc2n1)C(N)c1ccccc1 (some centres undefined)
90 | 155 to 157 | CCn1nc(-c2cccs2)c(C(=O)OCCOC(C)=O)c(Nc2cncc3ccccc23)c1=O
91 | 263 | CN1C(C(=O)Nc2cc(Cl)ncn2)=C(O)c2ccc3ccccc3c2S1(=O)=O
92 | 143 to 147 | CCN(CC)C(=O)c1cccc2c(=O)c(C)c(-c3ccc(OC)cc3)oc12
93 | 78 to 80 | Clc1cccc(Oc2ccc(OCc3ccc(Br)s3)cc2)n1
94 | 182 to 184 | CCOc1c(N)cc(-c2cccc3ccccc23)c2nc(C(=O)O)ccc12
95 | 132 | Fc1ccc(-c2nc3ccccc3nc2-c2ccc(F)cc2)cc1
96 | 103 to 105 | N=C(NCc1ccc(Cl)cc1)Nc1cccc(C(F)(F)F)c1
97 | 158 to 162 | CC1(C)CCC(C)(C)c2cc(N(CCCCOCc3ccccc3)C(=O)Nc3ccc(C(=O)O)cc3)ccc21
98 | 253 to 255 | NC(Cc1cc(CP(=O)(O)O)cc(-c2ccc(Cl)cc2)c1)C(=O)OCC=Cc1ccccc1 (centres undefined)
99 | 163 to 166 | O=Cc1coc2ccc(OCc3ccccc3)cc2c1=O
